Reference: ChEMBL document CHEMBL4118148, “Design, synthesis and cardiovascular evaluation of some aminoisopropanoloxy derivatives of xanthone” (Bioorg Med Chem, 2018)
Calls of active or inactive are those of the source. No cut-off for these calls is given here.

Legend:
Blood = test: Anti-aggregative activity in Wistar rat whole blood assessed as inhibition of collagen-induced aggregation up to 100 uM preincubated for 3 mins followed by collagen induction measured for 6 mins; format: functional, tissue-based
Rattus norvegicus [1] = test: Hypotensive activity in normotensive Wistar rat assessed as diastolic blood pressure at 2.5 mg/kg, iv measured after 10 mins (reference value: 116.2 +/- 1.2 mmHg); format: functional
Rattus norvegicus [2] = test: Cardiotoxicity in Wistar rat assessed as effect on QTC interval time at 1 mg/kg, iv measured after 15 mins (reference value: 137.7 +/- 2 ms); format: toxicity, organism-based; settings: in vivo, 0.25 h
Rattus norvegicus [3] = test: Cardiotoxicity in Wistar rat assessed as effect on QRS interval time at 1 mg/kg, iv measured after 15 mins (reference value: 19.4 +/- 0.9 ms); format: toxicity, organism-based; settings: in vivo, 0.25 h

COc1ccc(CCNCC(O)COc2cccc3c(=O)c4ccccc4oc23)cc1OC.Cl (racemic)
inhibition (Blood): inactive
Activity (Rattus norvegicus [1]): 101.5 mmHg

CC(C)(C)NCC(O)COc1cccc2c(=O)c3ccccc3oc12.Cl (racemic)
Time (Rattus norvegicus [2]): 131 ms
Time (Rattus norvegicus [3]): 19.2 ms
